Experiments:
[1] = target: T1, CPT1L (Rattus norvegicus, UniProt P32198); assay: LC-CoA levels in hypothalamic nuclei by HPLC after ICV CPT1 inhibitor; assay type: in vivo; conditions: ICV administration
T1 construct: from tissue; host or cells: hypothalamus (arcuate nucleus) of male Sprague-Dawley rats, in vivo or ex vivo
T1 sequence (P32198 1-773): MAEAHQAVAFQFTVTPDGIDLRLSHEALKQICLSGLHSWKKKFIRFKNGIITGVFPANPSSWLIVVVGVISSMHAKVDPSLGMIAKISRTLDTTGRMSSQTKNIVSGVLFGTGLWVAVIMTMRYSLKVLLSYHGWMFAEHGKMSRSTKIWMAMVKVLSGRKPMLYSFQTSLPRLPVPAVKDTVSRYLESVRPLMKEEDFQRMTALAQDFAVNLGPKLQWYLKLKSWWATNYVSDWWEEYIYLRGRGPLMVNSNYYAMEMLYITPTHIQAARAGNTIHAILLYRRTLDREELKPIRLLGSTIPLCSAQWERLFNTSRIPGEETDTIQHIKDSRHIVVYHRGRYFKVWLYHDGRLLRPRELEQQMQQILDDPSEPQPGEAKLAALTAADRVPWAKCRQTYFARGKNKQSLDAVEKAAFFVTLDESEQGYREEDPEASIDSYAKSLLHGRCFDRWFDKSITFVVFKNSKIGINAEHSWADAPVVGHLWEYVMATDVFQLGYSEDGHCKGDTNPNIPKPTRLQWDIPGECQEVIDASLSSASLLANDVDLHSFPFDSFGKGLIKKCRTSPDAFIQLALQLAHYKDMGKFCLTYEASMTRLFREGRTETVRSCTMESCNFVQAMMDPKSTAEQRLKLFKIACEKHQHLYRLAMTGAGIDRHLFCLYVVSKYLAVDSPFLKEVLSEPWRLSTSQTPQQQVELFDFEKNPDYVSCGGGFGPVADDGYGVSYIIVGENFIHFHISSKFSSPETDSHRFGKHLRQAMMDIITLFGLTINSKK
Description: Surgical implantation of ICV cannulae was performed on day 1 (˜3 weeks prior to the in vivo study). Full recovery of body weight and food intake was achieved by day 7. Rats randomized for ribozyme treatment received an ICV injection of CPT1L-Ribo, CPT inhibitors or controls on day 17. The experimental group treated with TDGA received ICV injection of the inhibitor on day 21, 6 hr prior to the harvesting of brains. Panels B. and C. show quantitation of CPT1L (B) and CPT1M (C) mRNA by real-time PCR. RNA was purified from individual hypothalamic nuclei (PVN, LHA, and arcuate), which were obtained by micro punch technique 3 days after ICV injection of pTarget control (▪; N=4) or CPT1LRibo (□; N=5). Copy number of CPT1 mRNA is normalized to β-Actin copy number ×10^6. Panels D. and E. show CPT1 activity in individual arcuate nuclei (D) or whole hypothalamus (E). Brains were harvested 6 hr or 3 days […] the ICV injection of TDGA or CPT1L-Ribo respectively, and arcuate nuclei were punched out. CPT1 activity was measured in the particulate fraction of protein extracts from animals treated with ICV control injections (▪; N=6, receiving aCSF+2% DMSO or Control Ribo), TDGA ( ?; N=6), or CPTL-Ribo (□; N=5). Panels F and E establish that ICV administration of CPT1 inhibitors increases levels of LC-CoAs in arcuate. Levels of stearoyl-CoA (F) and oleyl-CoA (E) respectively were measured by HPLC in arcuate of rats injected ICV with control compound (▪; ST1340) or ST1326 (□).
ICV catheters were implanted in male Sprague-Dawley rats by stereotaxic surgery (Obici et al., 2002a; Obici et al., 2001; Liu et al., 1998). The biochemical or molecular analyses, the metabolic or the feeding experiments were performed ˜3 weeks later following complete recovery from the operation (FIG. 2a). CPT1L-Ribo was delivered ICV three days prior to experimental tests (FIG. 2a). […] Thus, we next measured CPT1 activity in ARC and in whole hypothalamus. […]

[2] = tested on: hepatic glucose fluxes; assay: Hepatic glucose fluxes (flux through Glc-6-Pase, glucose cycling, direct pathway) after ICV OA; assay type: in vivo, rat
Description: Analytical Procedures and Calculations. Plasma glucose was measured by the glucose oxidase method (Glucose Analyzer II, Beckman Instruments, Inc. Fullerton, Calif., USA). Plasma insulin and leptin levels were determined by RIA (rat Leptin RIA kit, Linco Research Inc., St. Charles, Mo.). Serum adiponectin was measured by RIA (Linco Research, Inc., St. Charles, Mo.). Plasma non-esterified fatty acid concentrations were determined an enzymatic method by an automated kit according to the manufacturer's specifications (Waco Pure Chemical Industries. Osaka, Japan). The radioactivity of [3-^3H]glucose in plasma was measured from supernatants of Ba (OH)2 and from ZnSO4 precipitates (Somogyi procedure), after each was evaporated to dryness for the removal of tritiated water. Hepatic uridine diphosphoglucose (UDP-glucose) concentrations and specific activities were obtained by two sequential chromatographic separations, as previously described (Giaccari and Rossetti, 1989; 1992; Rossetti et al., 1993; 1996). Calculations were performed as described (Barzilai et al., 1997).
ICV OA markedly decreases the in vivo flux through Glc-6-Pase. GP represents the net contribution of glucosyl units derived from gluconeogenesis and glycogenolysis. However, a portion of glucose entering the liver via phophorylation by glucokinase is also a substrate for de-phosphorylation via Glc-6-Pase. This futile cycle between glucokinase and Glc-6-Pase is commonly named glucose cycling and accounts for the difference between the total glucose output (flux through Glc-6-Pase) and GP (FIG. 9a).
In order to further delineate the mechanisms responsible for the effect of ICV OA infusion on hepatic glucose production we estimated the in vivo flux through Glc-6-Pase and the relative contribution of glucose cycling to glucose output (Table 3; FIG. 9b,c). FIG. 9b,c depict the effect of ICV OA and ICV vehicle on the rates of hepatic glucose fluxes during the pancreatic-insulin clamp procedure. […]

[3] = caloric restricted rats (55 kcal/d)

Row | Oleyl-CoA levels in ARC [1] | stearoyl-CoA levels in ARC [1] | Other LC-CoAs ([1]; data not shown) | Compound | glucose cycling [2, 3] | total glucose output (in vivo flux through glucose-6-phosphatase) [2, 3] | glucose cycling ([2]; over-fed rats (140 kcal/d))
1 | marked increase | marked increase | significantly increased | CCCCCCCCCCCCCCNC(=O)N[C@H](CC(=O)[O-])C[N+](C)(C)C [ST1326, (R)-N-(tetradecylcarbamoyl)-aminocarnitine] | – | – | –
2 | – | – | – | CCCCCCCC/C=C\CCCCCCCC(=O)O [OA, oleic acid] | modestly and similarly decreased | markedly suppressed | modestly and similarly decreased

— patent publication US7705016B2, “Regulation of food intake by modulation of long-chain fatty acyl-CoA levels in the hypothalamus” (Albert Einstein College of Medicine of Yeshiva University, priority 2003, dated 2010)
